Drawing on BindingDB's records for doi:10.7270/Q2ZP450S (Catholic University of Daegu, 2017), this text covers IC50 and Ki for six compounds.

A word on the IC50: it is the midpoint of a concentration-inhibition curve. Lower therefore signals greater potency in that assay. What is called Ki is the equilibrium dissociation constant of an inhibitor or competing ligand from its target. A higher Ki goes with a looser hold on the target.

Molecules are shown by their SMILES.

For this assay, the target named is T1, Tyrosine-protein phosphatase non-receptor type 1 (Homo sapiens, UniProt P18031).
T1 sequence (P18031 whole entry): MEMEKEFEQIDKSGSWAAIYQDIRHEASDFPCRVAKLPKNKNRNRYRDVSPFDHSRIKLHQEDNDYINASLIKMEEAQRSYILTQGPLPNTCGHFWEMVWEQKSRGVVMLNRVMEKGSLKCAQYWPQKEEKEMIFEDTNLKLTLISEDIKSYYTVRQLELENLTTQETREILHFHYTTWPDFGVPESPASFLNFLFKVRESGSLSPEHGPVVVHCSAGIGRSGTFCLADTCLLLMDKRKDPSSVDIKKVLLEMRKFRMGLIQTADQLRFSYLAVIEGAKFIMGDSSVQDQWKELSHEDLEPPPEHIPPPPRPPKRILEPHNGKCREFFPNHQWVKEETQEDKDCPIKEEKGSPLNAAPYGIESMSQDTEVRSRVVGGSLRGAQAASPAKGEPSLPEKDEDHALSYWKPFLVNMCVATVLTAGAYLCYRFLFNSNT
Briefly: PTP1B Assay. The settings on record: pH 6; 37 °C. As for the experimental part:
In each 96-well plates (total 200 μL of volume), there were 2 mM p-NPP and PTP1B (0.05-0.1 μg) in a buffer containing 50 mM citrate (pH 6.0), 0.1 M NaCl, 1 mM EDTA, and 1 mM dithiothreitol (DTT) with or without test compound, following by pre-incubated at 37 °C for 10 min, and then implemented with 50 μL of p-NPP. The reaction was finally added with 10 M NaOH.

The compound `O=C1C=CC(=C(c2ccc(O)cc2)c2c(-c3ccc(O)cc3O)ccc(CO)c2C#Cc2ccc(O)cc2)C=C1` [PTP1B spring 5 (5)] displayed an IC50 of 15.9 µM and an inhibitory constant (Ki) of 13.9 µM.

For `O=C1C=CC(=C(c2ccc(O)cc2)c2c(C#Cc3ccc(O)cc3)cccc2-c2ccc(O)cc2)C=C1` [Selaginellin T (1)], it took 58 µM to reach half-maximal inhibition (IC50). In turn, `Cc1ccc(-c2ccc(O)cc2)c(C(=C2C=CC(=O)C=C2)c2ccc(O)cc2)c1C#Cc1ccc(O)cc1` [Selaginellin U (2)] registered an IC50 of 13.8 µM and an inhibitory constant (Ki) of 9.7 µM. `COc1ccc(-c2ccc(O)cc2)c(C(c2ccc(O)cc2)c2ccc(O)cc2)c1C#Cc1ccc(O)cc1` [PTP1B spring 7 (7)] came in with an IC50 of 4.8 µM and a Ki of 3 µM. In the same order, the values of `COc1cc(C#Cc2c(CO)ccc(-c3ccc(O)cc3)c2C(=C2C=CC(=O)C=C2)c2ccc(O)cc2)ccc1O` [Selaginellin V (3)] are 14.5 µM and 11.3 µM. In the same order, the values of `O=C1C=CC(=C(c2ccc(O)cc2)c2c(C#Cc3ccc(O)cc3)cccc2-c2ccc(O)cc2O)C=C1` [Selaginellin W (4)] are 14.6 µM and 11.1 µM.
